Measurements: US6414153B1, “1-phenylpydrrolidin-2-ones and -thiones and 1-(4-pyridyl)pydrrolidin-2-ones and -thiones which are useful in the treatment of inflammatory disease” (Boehringer Ingelheim Pharmaceuticals, Inc., priority 1999, dated 2002)

What was measured:
[1] = biological target: T1, LFA-1 (CD18/CD11a) binding to ICAM-1 (Homo sapiens, UniProt P05107+P20701); assay: Assay to Determine Inhibition of LFA-1 Binding to ICAM-1; conditions: immunoaffinity purified LFA-1 on plate-bound sICAM-1, 37° C. for 1 h, dose-response curve
T1 construct: endogenous in cells; host or cells: LFA-1: endogenous, immunopurified from human JY or SKW3 cell lysates. sICAM-1: made in house, secreted from transfected CHO DUX cells
T1 sequence (P20701 26-1170): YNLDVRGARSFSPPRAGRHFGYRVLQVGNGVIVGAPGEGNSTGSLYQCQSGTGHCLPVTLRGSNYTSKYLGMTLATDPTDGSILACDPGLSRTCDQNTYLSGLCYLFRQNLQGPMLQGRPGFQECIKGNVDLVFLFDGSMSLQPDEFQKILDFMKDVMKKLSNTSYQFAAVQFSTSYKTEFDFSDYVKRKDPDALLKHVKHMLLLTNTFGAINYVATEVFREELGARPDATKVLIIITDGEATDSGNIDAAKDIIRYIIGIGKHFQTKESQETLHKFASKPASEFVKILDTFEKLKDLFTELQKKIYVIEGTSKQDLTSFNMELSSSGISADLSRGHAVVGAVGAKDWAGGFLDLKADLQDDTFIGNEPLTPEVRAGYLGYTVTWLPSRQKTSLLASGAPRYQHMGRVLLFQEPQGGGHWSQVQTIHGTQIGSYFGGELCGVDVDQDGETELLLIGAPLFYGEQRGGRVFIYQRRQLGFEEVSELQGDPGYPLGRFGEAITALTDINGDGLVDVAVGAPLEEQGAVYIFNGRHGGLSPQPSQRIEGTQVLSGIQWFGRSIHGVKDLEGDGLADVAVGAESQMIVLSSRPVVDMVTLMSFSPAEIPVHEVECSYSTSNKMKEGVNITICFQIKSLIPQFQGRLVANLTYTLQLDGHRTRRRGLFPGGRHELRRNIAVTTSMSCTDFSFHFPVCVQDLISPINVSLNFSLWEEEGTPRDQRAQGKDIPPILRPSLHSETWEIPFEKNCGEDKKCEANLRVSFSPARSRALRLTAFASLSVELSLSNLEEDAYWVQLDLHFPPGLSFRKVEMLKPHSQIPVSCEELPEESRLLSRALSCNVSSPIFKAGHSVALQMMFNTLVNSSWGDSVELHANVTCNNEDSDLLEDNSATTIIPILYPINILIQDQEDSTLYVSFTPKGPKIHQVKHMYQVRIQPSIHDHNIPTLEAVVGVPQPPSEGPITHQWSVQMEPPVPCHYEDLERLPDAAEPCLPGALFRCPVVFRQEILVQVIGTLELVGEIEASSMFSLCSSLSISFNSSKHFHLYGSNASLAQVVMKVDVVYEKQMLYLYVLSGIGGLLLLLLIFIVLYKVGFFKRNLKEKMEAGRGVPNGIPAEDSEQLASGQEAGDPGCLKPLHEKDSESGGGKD
T1 sequence (P05107 23-769): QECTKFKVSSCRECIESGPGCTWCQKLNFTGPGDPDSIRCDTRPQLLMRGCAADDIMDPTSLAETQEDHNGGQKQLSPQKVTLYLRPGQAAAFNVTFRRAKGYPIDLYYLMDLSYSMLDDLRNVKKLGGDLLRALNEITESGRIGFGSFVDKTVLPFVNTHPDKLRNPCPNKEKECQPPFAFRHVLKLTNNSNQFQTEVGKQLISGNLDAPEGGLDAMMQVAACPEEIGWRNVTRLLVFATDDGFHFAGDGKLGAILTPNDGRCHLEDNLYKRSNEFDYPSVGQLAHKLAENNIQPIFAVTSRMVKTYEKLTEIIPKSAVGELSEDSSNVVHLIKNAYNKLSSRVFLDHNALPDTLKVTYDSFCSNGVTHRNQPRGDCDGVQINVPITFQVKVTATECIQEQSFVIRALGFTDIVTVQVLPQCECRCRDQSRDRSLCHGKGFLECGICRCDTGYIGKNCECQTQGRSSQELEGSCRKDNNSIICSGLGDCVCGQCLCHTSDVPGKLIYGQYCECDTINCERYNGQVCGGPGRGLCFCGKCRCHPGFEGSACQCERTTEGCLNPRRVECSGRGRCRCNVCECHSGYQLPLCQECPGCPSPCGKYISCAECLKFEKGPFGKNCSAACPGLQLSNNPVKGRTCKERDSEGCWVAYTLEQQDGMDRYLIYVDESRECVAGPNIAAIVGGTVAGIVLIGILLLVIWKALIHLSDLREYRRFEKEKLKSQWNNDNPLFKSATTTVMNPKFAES
Excerpt: This assay protocol is designed to study the direct antagonism, by a test compound, of the interaction of the CAM, ICAM-1 with the Leukointegrin CD18/CD11a (LFA-1).
After collection and neutralization of fractions from the TS2/4 column, samples are pooled and precleared with Protein G agarose.
An expression vector is created with a hamster dihydrofolate reductase gene, a neomycin-resistance marker, and the coding region of the sICAM-1 construct described above, along with the promoter, splice signals, and polyadenylation signal of the SV40 early region. The recombinant plasmid is transfected into CHO DUX cells using standard calcium phosphate methods. Cells are passaged in selective media (G418) and colonies secreting sICAM-1 are amplified using methotrexate. sICAM-1 is purified from serum-free media using traditional non-affinity chromatographic techniques, including ion exchange and size exclusion chromatography.
LFA-1 binding to ICAM-1 is monitored by first incubating sICAM-1 at 40 μg/mL in Dulbecco's phosphate buffered saline with calcium and magnesium, additional 2 mM MgCl2 and 0.1 mM PMSF (Diluting Buffer) in a 96-well plate for 30 min at room temperature. Plates are then blocked by the addition of 2% (w/v) bovine serum albumin in Diluting Buffer for 37° C. for 1 h. Blocking solution is removed from wells, and test compounds are diluted and then added followed by the addition of approximately 25 ng of immunoaffinity purified LFA-1. The LFA-1 is incubated in the presence of test compound and ICAM-1 at 37° C. for 1 h. Wells are washed 3 times with Diluting Buffer. The bound LFA-1 is detected by the addition of a polyclonal antibody directed against a peptide corresponding to the CD18 cytoplasmic tail in a 1:100 dilution with Diluting Buffer and 1% BSA and allowed to incubate for 45 min at 37° C. Wells are washed 3 times with Diluting Buffer and the bound polyclonal antibody is detected by the addition of a 1:4000 dilution of horse radish peroxidase conjugated to goat immunoglobulin directed against rabbit immunoglobulin. This reagent is allowed to incubate for 20 min at 37° C., wells are washed as above and the substrate for the horse radish peroxidase is added to each well to develop a quantitative colorimetric signal proportional to the amount of LFA-1 bound to sICAM-1. […] The lack of the addition of LFA-1 to the binding assay is used as a background control for all samples. A dose-response curve is obtained for all test compounds.

Kd [1] [µM] | melting point [°C] | Compound
1.44 | 165 to 166.5 | CC1(Cc2ccccc2)C(=O)N(c2cc(Cl)cc(Cl)c2)c2cccc(O)c21 (centres unmarked) [Example 16, 3-benzyl-1-(3,5-dichlorophenyl)-4-hydroxy-3-methyl-1,3-dihydroindol-2-one]
> 10 | 232 to 235 | O=C1C(Cc2ccccc2)c2cc(O)ccc2N1c1cc(Cl)cc(Cl)c1 (centres unmarked) [Example 14, 3-benzyl-1-(3,5-dichlorophenyl)-5-hydroxy-1,3-dihydroindol-2-one]
3.53 |  | CC1(Cc2ccc(C#N)cc2)C(=O)N(c2cc(Cl)cc(Cl)c2)c2ncccc21 (centres unmarked) [Example 5, 3-(4-cyanobenzyl)-1-(3,5-dichlorophenyl)-3-methyl-1,3-dihydropyrrolo[2,3-b]pyridin-2-one]
0.917 | 203 to 208 | O=C1C(Cc2ccc(Br)cc2)c2c(O)cccc2N1c1cc(Cl)cc(Cl)c1 (centres unmarked) [Example 17, 3-(4-bromobenzyl)-1-(3,5-dichlorophenyl)-4-hydroxy-1,3-dihydroindol-2-one]
1.08 | 142 to 144 | COc1cccc2c1C(Cc1cccc(Br)c1)C(=O)N2c1cc(Cl)cc(Cl)c1 (centres unmarked) [Example 10, 3-(3-bromobenzyl)-1-(3,5-dichlorophenyl)-4-methoxy-1,3-dihydroindol-2-one]
> 10 |  | CC1(Cc2ccc(Br)cc2)C(=O)N(c2cc(Cl)cc(Cl)c2)c2ccccc21 (centres unmarked) [Example 2, 3-(4-Bromobenzyl)-1-(3,5-dichlorophenyl)-3-methyl-1,3-dihydro-indol-2-one]
> 10 | 118 to 119 | COc1ccc2c(c1)C(Cc1ccccc1)C(=O)N2c1cc(Cl)cc(Cl)c1 (centres unmarked) [Example 13, 3-benzyl-1-(3,5-dichlorophenyl)-5-methoxy-1,3-dihydroindol-2-one]
4.89 | 264 to 266 | O=C(O)c1ccc2c(c1)N(c1cc(Cl)cc(Cl)c1)C(=O)C2Cc1ccc(Br)cc1 (centres unmarked) [Example 8, 3-(4-bromobenzyl)-1-(3,5-dichlorophenyl)-1,3-dihydroindol-2-one-6-carboxylic acid]
4.97 | 109 to 111 | O=C1C(Cc2ccccc2)c2ccccc2N1c1cc(Cl)cc(Cl)c1 (centres unmarked) [Example 15, 3-benzyl-1-(3,5-dichlorophenyl)-1,3-dihydroindol-2-one]
> 10 | 139 to 142 | O=C1C(Cc2ccc(Br)cc2)c2ccccc2N1c1cc(Cl)cc(Cl)c1 (centres unmarked) [Example 1, 3-(4-Bromobenzyl)-1-(3,5-dichlorophenyl)-1,3-dihydroindol-2-one]
1.79 | 225 to 227 | CC1(Cc2ccc(Br)cc2)C(=O)N(c2cc(Cl)cc(Cl)c2)c2cccc(O)c21 (centres unmarked) [Example 6, 3-(4-bromobenzyl)-1-(3,5-dichlorophenyl)-4-hydroxy-3-methyl-1,3-dihydroindol-2-one]
0.705 | 138 to 140 | COc1cccc2c1C(Cc1ccccc1)C(=O)N2c1cc(Cl)cc(Cl)c1 (centres unmarked) [Example 9, 3-benzyl-1-(3,5-dichlorophenyl)-4-methoxy-1,3-dihydroindol-2-one]
2.71 | 178 to 179 | O=C1C(Cc2ccc(Br)cc2)c2cc(F)ccc2N1c1cc(Cl)cc(Cl)c1 (centres unmarked) [Example 7, 3-(4-bromobenzyl)-1-(3,5-dichlorophenyl)-5-fluoro-1,3-dihydroindol-2-one]
0.375 |  | CC1(Cc2ccc(Br)cc2)C(=O)N(c2cc(Cl)cc(Cl)c2)c2ncccc21 (centres unmarked) [Example 3, 3-(4-Bromobenzyl)-1-(3,5-dichlorophenyl)-3-methyl-1,3-dihydropyrrolo[2,3-b]pyridin-2-one]
2.54 | 225 to 227 | CC1(Cc2cccc(Br)c2)C(=O)N(c2cc(Cl)cc(Cl)c2)c2cccc(O)c21 (centres unmarked) [Example 11, 3-(3-bromobenzyl)-1-(3,5-dichlorophenyl)-4-hydroxy-3-methyl-1,3-dihydroindol-2-one]
1.31 | 181 to 185 | O=C1C(Cc2ccccc2)c2c(O)cccc2N1c1cc(Cl)cc(Cl)c1 (centres unmarked) [Example 12, 3-benzyl-1-(3,5-dichlorophenyl)-4-hydroxy-1,3-dihydroindol-2-one]
